# US8729082B2, “Substituted imidazoquinoxalines” (Bayer Intellectual Property GmbH, priority 2009, dated 2014)
# pIC50: −log10 of the molar value.
# Biological target: T1, human kinase Mps-1 (Homo sapiens, UniProt P33981)
# T1 construct: N-terminally GST-tagged human full length recombinant Mps-1 kinase; purchased Invitrogen, Karslruhe, Germany PV4071
# T1 sequence (P33981 1-857): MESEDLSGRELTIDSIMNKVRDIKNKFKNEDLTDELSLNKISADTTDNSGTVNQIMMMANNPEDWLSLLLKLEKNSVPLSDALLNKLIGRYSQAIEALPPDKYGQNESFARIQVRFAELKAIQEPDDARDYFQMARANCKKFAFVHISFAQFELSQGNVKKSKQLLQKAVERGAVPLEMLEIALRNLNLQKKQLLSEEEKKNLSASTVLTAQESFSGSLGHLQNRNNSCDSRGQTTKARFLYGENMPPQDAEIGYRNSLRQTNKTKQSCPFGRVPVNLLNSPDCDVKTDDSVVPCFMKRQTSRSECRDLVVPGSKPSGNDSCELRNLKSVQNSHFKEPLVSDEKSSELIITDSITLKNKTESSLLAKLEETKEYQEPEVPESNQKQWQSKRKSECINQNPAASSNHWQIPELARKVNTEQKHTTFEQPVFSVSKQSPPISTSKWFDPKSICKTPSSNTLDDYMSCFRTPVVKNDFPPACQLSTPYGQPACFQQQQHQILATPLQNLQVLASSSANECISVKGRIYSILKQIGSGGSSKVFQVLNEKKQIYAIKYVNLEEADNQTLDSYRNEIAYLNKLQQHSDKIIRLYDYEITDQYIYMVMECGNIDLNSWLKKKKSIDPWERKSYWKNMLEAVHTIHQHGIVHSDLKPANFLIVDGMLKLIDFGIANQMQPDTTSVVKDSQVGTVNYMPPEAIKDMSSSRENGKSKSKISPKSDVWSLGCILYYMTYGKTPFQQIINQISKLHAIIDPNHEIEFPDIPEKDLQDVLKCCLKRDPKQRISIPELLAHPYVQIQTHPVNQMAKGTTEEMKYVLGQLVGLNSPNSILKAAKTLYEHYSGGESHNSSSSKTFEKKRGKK
# Assay: Mps-1 kinase assay (HTRF)
# Assay type: biochemical
# Conditions: lowATP; mean; read-out: Mps1 lowATP mean IC50
# Outline: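 HTRF readout: EDTA-stopped reactions incubated 1 h with europium anti-phospho(Ser/Thr) antibody and streptavidin-XLent, emission ratio 665/620 nm after 350 nm excitation. Kinase step: compound pre-bound 15 min to ~1 nM GST-Mps-1, then 60 min at 22 °C with ATP and biotin-peptide substrate; inhibition scaled between no-inhibitor (0%) and no-enzyme (100%) controls.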
row,Structure (SMILES),pIC50
1,"O=C(NC1CC1)c1ccc(-c2cnc3c(NCC4CC4)nc4ccccc4n23)cc1 [Example 2-23, N-cyclopropyl-4-{4-[(cyclopropylmethyl)amino]imidazo[1,2-a]quinoxalin-1-yl}benzamide]",7.62
2,"O=C(NC1CC1)c1ccc(-c2cnc3c(NCCN4CCOCC4)nc4ccccc4n23)cc1 [Example 2-24, N-cyclopropyl-4-(4-{[2-(morpholin-4-yl)ethyl]amino}imidazo[1,2-a]quinoxalin-1-yl)benzamide]",6.90
3,"NS(=O)(=O)c1ccc(CNc2nc3ccccc3n3c(-c4ccc(C(=O)NC5CC5)cc4)cnc23)cc1 [Example 2-25, N-cyclopropyl-4-{4-[(4-sulfamoylbenzyl)amino]imidazo[1,2-a]quinoxalin-1-yl}benzamide]",6.80
4,"O=C(NC1CC1)c1ccc(-c2cnc3c(NCc4cccnc4)nc4ccccc4n23)cc1 [Example 2-26, N-cyclopropyl-4-{4-[(pyridin-3-ylmethyl)amino]imidazo[1,2-a]quinoxalin-1-yl}benzamide]",7.00
5,"O=C(NC1CC1)c1ccc(-c2cnc3c(NCCCc4ccccc4)nc4ccccc4n23)cc1 [Example 2-27, N-cyclopropyl-4-{4-[(3-phenylpropyl)amino]imidazo[1,2-a]quinoxalin-1-yl}benzamide]",6.55
6,"O=C(NC1CC1)c1ccc(-c2cnc3c(NCc4ccc5c(c4)OCO5)nc4ccccc4n23)cc1 [Example 2-28, 4-{4-[(1,3-benzodioxol-5-ylmethyl)amino]imidazo[1,2-a]quinoxalin-1-yl}-N-cyclopropylbenzamide]",7.21
7,"O=C(NC1CC1)c1ccc(-c2cnc3c(NCCOc4ccccc4)nc4ccccc4n23)cc1 [Example 2-29, N-cyclopropyl-4-{4-[(2-phenoxyethyl)amino]imidazo[1,2-a]quinoxalin-1-yl}benzamide]",6.35
8,"O=C(NC1CC1)c1ccc(-c2cnc3c(NCCc4ccncc4)nc4ccccc4n23)cc1 [Example 2-30, N-cyclopropyl-4-(4-{[2-(pyridin-4-yl)ethyl]amino}imidazo[1,2-a]quinoxalin-1-yl)benzamide]",6.92
9,"O=C(NC1CC1)c1ccc(-c2cnc3c(NCCCCN4CCCC4)nc4ccccc4n23)cc1 [Example 2-31, N-cyclopropyl-4-(4-{[4-(pyrrolidin-1-yl)butyl]amino}imidazo[1,2-a]quinoxalin-1-yl)benzamide]",6.49
10,"CS(=O)(=O)Nc1ccc(Nc2nc3ccccc3n3c(-c4ccc(C(=O)NC5CC5)cc4)cnc23)cc1 [Example 2-32, N-cyclopropyl-4-[4-({4-[(methylsulfonyl)amino]phenyl}amino)imidazo[1,2-a]quinoxalin-1-yl]benzamide]",6.69
11,"O=C(NC1CC1)c1ccc(-c2cnc3c(NCCN4CCNC4=O)nc4ccccc4n23)cc1 [Example 2-33, N-cyclopropyl-4-(4-{[2-(2-oxoimidazolidin-1-yl)ethyl]amino}imidazo[1,2-a]quinoxalin-1-yl)benzamide]",5.94
12,"N#Cc1ccc(CNc2nc3ccccc3n3c(-c4ccc(C(=O)NC5CC5)cc4)cnc23)cc1 [Example 2-34, 4-{4-[(4-cyanobenzyl)amino]imidazo[1,2-a]quinoxalin-1-yl}-N-cyclopropylbenzamide]",6.54
13,"O=C(NC1CC1)c1ccc(-c2cnc3c(NCCc4ccc(F)cc4)nc4ccccc4n23)cc1 [Example 2-35, N-cyclopropyl-4-(4-{[2-(4-fluorophenyl)ethyl]amino}imidazo[1,2-a]quinoxalin-1-yl)benzamide]",6.27
14,"O=C(NC1CC1)c1ccc(-c2cnc3c(NCCc4cccnc4)nc4ccccc4n23)cc1 [Example 2-36, N-cyclopropyl-4-(4-{[2-(pyridin-3-yl)ethyl]amino}imidazo[1,2-a]quinoxalin-1-yl)benzamide]",6.89
15,"Cn1ccc(Nc2nc3ccccc3n3c(-c4ccc(C(=O)NC5CC5)cc4)cnc23)n1 [Example 2-37, N-cyclopropyl-4-{4-[(1-methyl-1H-pyrazol-3-yl)amino]imidazo[1,2-a]quinoxalin-1-yl}benzamide]",5.98
16,"NS(=O)(=O)CCNc1nc2ccccc2n2c(-c3ccc(C(=O)NC4CC4)cc3)cnc12 [Example 2-38, N-cyclopropyl-4-{4-[(2-sulfamoylethyl)amino]imidazo[1,2-a]quinoxalin-1-yl}benzamide]",7.37
17,"COc1cc(C(=O)NC2CCN(C)CC2)ccc1Nc1nc2ccccc2n2c(-c3ccc(C(=O)NC4CC4)cc3)cnc12 [Example 2-39, 4-({1-[4-(cyclopropylcarbamoyl)phenyl]imidazo[1,2-a]quinoxalin-4-yl}amino)-3-methoxy-N-(1-methylpiperidin-4-yl)benzamide]",6.10
18,"CCCNc1nc2ccc(F)cc2n2c(-c3ccc(C(=O)NC4CC4)cc3)cnc12 [Example 2-40, N-cyclopropyl-4-[8-fluoro-4-(propylamino)imidazo[1,2-a]quinoxalin-1-yl]benzamide]",7.55
19,"O=C(NC1CC1)c1ccc(-c2cnc3c(NCCO)nc4ccc(F)cc4n23)cc1 [Example 2-41, N-cyclopropyl-4-{8-fluoro-4-[(2-hydroxyethyl)amino]imidazo[1,2-a]quinoxalin-1-yl}benzamide]",6.67
20,"O=C(NC1CC1)c1ccc(-c2cnc3c(NCCCN4CCOCC4)nc4ccc(F)cc4n23)cc1 [Example 2-42, N-cyclopropyl-4-(8-fluoro-4-{[3-(morpholin-4-yl)propyl]amino}imidazo[1,2-a]quinoxalin-1-yl)benzamide]",6.47
21,"CC(C)CCNc1nc2ccc(F)cc2n2c(-c3ccc(C(=O)NC4CC4)cc3)cnc12 [Example 2-43, N-cyclopropyl-4-{8-fluoro-4-[(3-methylbutyl)amino]imidazo[1,2-a]quinoxalin-1-yl}benzamide]",7.44
22,"O=C(NC1CC1)c1ccc(-c2cnc3c(NCCCN4CCCC4=O)nc4ccc(F)cc4n23)cc1 [Example 2-44, N-cyclopropyl-4-(8-fluoro-4-{[3-(2-oxopyrrolidin-1-yl)propyl]amino}imidazo[1,2-a]quinoxalin-1-yl)benzamide]",6.49
23,"COCCNc1nc2ccc(F)cc2n2c(-c3ccc(C(=O)NC4CC4)cc3)cnc12 [Example 2-45, N-cyclopropyl-4-{8-fluoro-4-[(2-methoxyethyl)amino]imidazo[1,2-a]quinoxalin-1-yl}benzamide]",6.59
24,"O=C(NC1CC1)c1ccc(-c2cnc3c(NCc4ccc(F)cc4)nc4ccc(F)cc4n23)cc1 [Example 2-46, N-cyclopropyl-4-{8-fluoro-4-[(4-fluorobenzyl)amino]imidazo[1,2-a]quinoxalin-1-yl}benzamide]",7.11
25,"O=C(NC1CC1)c1ccc(-c2cnc3c(NCCCCO)nc4ccc(F)cc4n23)cc1 [Example 2-47, N-cyclopropyl-4-{8-fluoro-4-[(4-hydroxybutyl)amino]imidazo[1,2-a]quinoxalin-1-yl}benzamide]",7.18
26,"O=C(NC1CC1)c1ccc(-c2cnc3c(NCc4cccs4)nc4ccc(F)cc4n23)cc1 [Example 2-48, N-cyclopropyl-4-{8-fluoro-4-[(thiophen-2-ylmethyl)amino]imidazo[1,2-a]quinoxalin-1-yl}benzamide]",7.39
27,"CCNc1nc2ccc(F)cc2n2c(-c3ccc(C(=O)NC4CC4)cc3)cnc12 [Example 2-49, N-cyclopropyl-4-[4-(ethylamino)-8-fluoroimidazo[1,2-a]quinoxalin-1-yl]benzamide]",7.06
